According to ChEMBL document CHEMBL3098088, “Synthesis and antimycobacterial activity of novel camphane-based agents” (Bioorg Med Chem Lett, 2014):
Converted amounts (≈) assume the structure as drawn. Where a name gives a salt, the structure may show the parent alone.

How the values were obtained:
[1] = test system: Mycobacterium tuberculosis; experiment: Antimycobacterial activity against Mycobacterium tuberculosis H37Rv after 45 days; type: functional
[2] = Selectivity index, ratio of IC50 for human 293T cells to MIC for Mycobacterium tuberculosis H37Rv; type: toxicity, cell-based; details: read-out: Selectivity Index
HEK-293T = experiment: Cytotoxicity against human 293T cells; type: cell-based

| Structure (SMILES) | MIC [1] [µM] | selectivity ratio [2] | IC50 (HEK-293T) [µM] |
| --- | --- | --- | --- |
| CC[C@@H](CO)NCCN[C@@H](CC)CO [ETHAMBUTOL HYDROCHLORIDE] | 7.22 | – | – |
| CO[C@H]1/C=C/O[C@@]2(C)Oc3c(C)c(O)c4c(O)c(c(/C=N/N5CCN(C)CC5)c(O)c4c3C2=O)NC(=O)/C(C)=C\C=C\[C@H](C)[C@H](O)[C@@H](C)[C@@H](O)[C@@H](C)[C@H](OC(C)=O)[C@@H]1C [RIFAMPIN] | 0.06 (≈ 0.0494 µg/mL) | – | – |
| CC1(C)[C@@H]2CC[C@@]1(C)[C@H](NC(=O)[C@@H](O)c1ccccc1)C2 | 0.17 (≈ 0.0489 µg/mL) | 619 | 105 |
| CC[C@H](C)[C@H](O)C(=O)N[C@@H]1C[C@H]2CC[C@]1(C)C2(C)C | 7.48 (≈ 2 µg/mL) | 13.6 | 107 |
| CSCC[C@H](O)C(=O)N[C@@H]1C[C@H]2CC[C@]1(C)C2(C)C | 0.17 (≈ 0.0485 µg/mL) | 1010 | 172 |
| CC(C)[C@H](O)C(=O)N[C@@H]1C[C@H]2CC[C@]1(C)C2(C)C | 7.89 (≈ 2 µg/mL) | > 25.3 | > 200 |
| CC1(C)[C@@H]2CC[C@@]1(C)[C@H](NC(=O)[C@@H](O)Cc1ccccc1)C2 | 0.16 (≈ 0.0482 µg/mL) | 330 | 52.8 |
| CC(C)C[C@H](O)C(=O)N[C@@H]1C[C@H]2CC[C@]1(C)C2(C)C | 7.48 (≈ 2 µg/mL) | 14.9 | 112 |
